Results published in patent US9145399B2, “Substituted bicyclic triazole derivatives as gamma secretase modulators” (Janssen Pharmaceuticals, Inc., priority 2010, dated 2015).
pIC50: −log10 of the molar value. Where a name gives a salt, the structure may show the parent alone.

Key:
[1] = system: Aβ42; assay: Screening for γ-secretase-modulating activity in SKNBE2 cells carrying APP 695 wild type: Aβ42 in cell supernatant (Alphalisa); assay type: cell-based; conditions: overnight incubation
Protocol: (§1) Pharmacology A) Screening of the Compounds of the Invention for γ-Secretase-Modulating Activity
(§2) Screening was carried out using SKNBE2 cells carrying the APP 695—wild type, grown in Dulbecco's Modified Eagle's Medium/Nutrient mixture F-12 (DMEM/NUT-mix F-12) (HAM) provided by Invitrogen (cat no. 10371-029) containing 5% Serum/Fe supplemented with 1% non-essential amino acids, 1-glutamine 2 mM, Hepes 15 mM, penicillin 50 U/ml (units/ml) en streptomycin 50 μg/ml. Cells were grown to near confluency.
(§3) The screening was performed using a modification of the assay as described in Citron et al (1997) Nature Medicine 3: 67. Briefly, cells were plated in a 384-well plate at 10^4 cells/well in Ultraculture (Lonza, BE12-725F) supplemented with 1% glutamine (Invitrogen, 25030-024), 1% non-essential amino acid (NEAA), penicillin 50 U/ml en streptomycin 50 μg/ml in the presence of test compound at different test concentrations. The cell/compound mixture was incubated overnight at 37° C., 5% CO2. The next day the media were assayed by two sandwich immuno-assays, for Aβ42 and Aβtotal.
(§4) Aβtotal and Aβ42 concentrations were quantified in the cell supernatant using the Aphalisa technology (Perkin Elmer). Alphalisa is a sandwich assay using biotinylated antibody attached to streptavidin coated donorbeads and antibody conjugated to acceptor beads. In the presence of antigen, the beads come into close proximity. The excitation of the donor beads provokes the release of singlet oxygen molecules that trigger a cascade of energy transfer in the acceptor beads, resulting in light emission. To quantify the amount of Aβ42 in the cell supernatant, monoclonal antibody specific to the C-terminus of Aβ42 (JRF/cAβ42/26) was coupled to the receptor beads and biotinylated antibody specific to the N-terminus of Aβ (JRF/AβN/25) was used to react with the donor beads. T quantify the amount of Aβtotal in the cell supernatant, monoclonal antibody specific to the N-terminus of Aβ (JRF/AβN/25) was coupled to the receptor beads and biotinylated antibody specific to the mid region of Aβ (biotinylated 4G8) was used to react with the donor beads.
(§5) To obtain the values reported in Table 3, the data are calculated as percentage of the maximum amount of amyloid Beta 42 measured in the absence of the test compound. The sigmoidal dose response curves were analyzed using non-linear regression analysis with percentage of the control plotted against the log concentration of the compound. A 4-parameter equation was used to determine the IC50.

[2] = system: Aβtotal; assay: Screening for γ-secretase-modulating activity in SKNBE2 cells carrying APP 695 wild type: Aβtotal in cell supernatant (Alphalisa); assay type: cell-based; conditions: overnight incubation
Protocol: as §1, §2, §3, §4, §5

[3] = SKNBE2 cells carrying APP 695 wild type
[4] = Homo sapiens, SKNBE2, SKNBE2 cells carrying APP 695 wild type

pIC50 [1, 3] | pIC50 [2] | pIC50 [1, 4] | pIC50 ([2]; Homo sapiens) | SMILES
7.42 | < 5.00 | – | – | COc1ccc(F)c(C2CCCn3nc(Nc4ccc(-c5ccnc(C)c5)c(OC)c4)nc32)c1 (stereo not drawn) [Compound 172, 8-(2-fluoro-5-methoxyphenyl)-5,6,7,8-tetrahydro-N-[3-methoxy-4-(2-methyl-4-pyridinyl)phenyl]-[1,2,4]triazolo[1,5-a]pyridin-2-amine.1.7HCl]
– | – | 7.74 | < 5.00 | COc1cc(Nc2nc3n(n2)CCCC3c2ccc(F)cc2)ccc1-n1cnc(C)c1 (stereo not drawn) [Compound 5, 8-(4-fluorophenyl)-5,6,7,8-tetrahydro-N-[3-methoxy-4-(4-methyl-1H-imidazol-1-yl)phenyl]-[1,2,4]triazolo[1,5-a]pyridin-2-amine]
– | – | 7.37 | < 5.00 | Cc1cc(-c2ccc(Nc3nc4n(n3)CCC[C@@H]4c3ccc(F)cc3C)cc2)ccn1 [Compound 93, (8R)-8-(4-fluoro-2-methylphenyl)-5,6,7,8-tetrahydro-N-[4-(2-methyl-4-pyridinyl)phenyl]-[1,2,4]triazolo[1,5-a]pyridin-2-amine]
– | – | 7.25 | < 5.00 | COc1cc(Nc2nc3n(n2)CCCC3c2cccc(N(C)C)c2)ccc1-c1ccnc(C)c1 (stereo not drawn) [Compound 111, 8-[3-(dimethylamino)phenyl]-5,6,7,8-tetrahydro-N-[3-methoxy-4-(2-methyl-4-pyridinyl)phenyl]-[1,2,4]triazolo[1,5-a]pyridin-2-amine]
– | – | 7.39 | < 5.00 | COc1cc(F)cc(C2CCCn3nc(Nc4ccc(-c5ccnc(C)c5)c(OC)c4)nc32)c1 (stereo not drawn) [Compound 115, 8-(3-fluoro-5-methoxyphenyl)-5,6,7,8-tetrahydro-N-[3-methoxy-4-(2-methyl-4-pyridinyl)phenyl]-[1,2,4]triazolo[1,5-a]pyridin-2-amine]
– | – | 7.25 | < 5.00 | Cc1cc(-c2ccc(Nc3nc4n(n3)CCC[C@H]4c3ccc(F)cc3C)cc2)ccn1 [Compound 94, (8S)-8-(4-fluoro-2-methylphenyl)-5,6,7,8-tetrahydro-N-[4-(2-methyl-4-pyridinyl)phenyl]-[1,2,4]triazolo[1,5-a]pyridin-2-amine]
– | – | 6.44 | < 5.00 | COc1nc(Nc2nc3n(n2)CCCC3c2ccc(F)cc2)ccc1-c1ccnc(C)c1 (stereo not drawn) [Compound 16, 8-(4-fluorophenyl)-5,6,7,8-tetrahydro-N-(2-methoxy-2′-methyl[3,4′-bipyridin]-6-yl)-[1,2,4]triazolo[1,5-a]pyridin-2-amine]
– | – | 6.91 | < 5.00 | COc1cc(Nc2nc3n(n2)CCC(c2ccccc2C(F)(F)F)C3)ccc1-c1ccnc(C)c1 (stereo not drawn) [Compound 62, 5,6,7,8-tetrahydro-N-[3-methoxy-4-(2-methyl-4-pyridinyl)phenyl]-7-[2-(trifluoromethyl)phenyl]-[1,2,4]triazolo[1,5-a]pyridin-2-amine HCl]
7.41 | < 5.00 | – | – | COc1cccc(C2CCCn3nc(Nc4ccc(-c5ccnc(C)c5)c(OC)c4)nc32)c1 (stereo not drawn) [Compound 40, 5,6,7,8-tetrahydro-N-[3-methoxy-4-(2-methyl-4-pyridinyl)phenyl]-8-(3-methoxyphenyl)-[1,2,4]triazolo[1,5-a]pyridin-2-amine.1.8 HCl.0.9H2O]
– | – | 7.49 | 5.04 | COc1cc(Nc2nc3n(n2)CCCC3c2ccc(C(F)(F)F)cc2)ccc1-c1ccnc(C)c1 (stereo not drawn) [Compound 89, 5,6,7,8-tetrahydro-N-[3-methoxy-4-(2-methyl-4-pyridinyl)phenyl]-8-[4-(trifluoromethyl)phenyl]-[1,2,4]triazolo[1,5-a]pyridin-2-amine]

Second part, the molecule before the results:

SMILES | pIC50 [1, 3] | pIC50 [2] | pIC50 [1, 4] | pIC50 ([2]; Homo sapiens)
COc1cc(Nc2nc3n(n2)CCC(c2ccccc2C(F)(F)F)C3)ccc1-n1cnc(C)c1 (stereo not drawn) [Compound 51, 5,6,7,8-tetrahydro-N-[3-methoxy-4-(4-methyl-1H-imidazol-1-yl)phenyl]-7-[2-(trifluoromethyl)phenyl]-[1,2,4]triazolo[1,5-a]pyridin-2-amine] | – | – | 7.21 | < 5.00
Cc1cc(-c2ccc(Nc3nc4n(n3)CCOC4c3ccccc3C(F)(F)F)cc2F)ccn1 (stereo not drawn) [Compound 86, N-[3-fluoro-4-(2-methyl-4-pyridinyl)phenyl]-5,6-dihydro-8-[2-(trifluoromethyl)phenyl]-8H-[1,2,4]triazolo[5,1-c][1,4]oxazin-2-amine] | – | – | 7.32 | < 5.00
COc1nc(Nc2nc3n(n2)CCCC3c2ccccc2Cl)ccc1-n1cnc(C)c1 (stereo not drawn) [Compound 18, 8-(2-chlorophenyl)-5,6,7,8-tetrahydro-N-[6-methoxy-5-(4-methyl-1H-imidazol-1-yl)-2-pyridinyl]-[1,2,4]triazolo[1,5-a]pyridin-2-amine] | – | – | 6.95 | < 5.00
COc1cc(Nc2nc3cc(-c4ccccc4C(F)(F)F)ccn3n2)ccc1-n1cnc(C)c1 [Compound 21, N-[3-methoxy-4-(4-methyl-1H-imidazol-1-yl)phenyl]-7-[2-(trifluoromethyl)phenyl]-[1,2,4]triazolo[1,5-a]pyridin-2-amine] | – | – | 6.94 | < 5.00
COc1cc(Nc2nc3c(-c4ccc(F)cc4C(F)(F)F)cccn3n2)ccc1-n1cnc(C)n1 [Compound 4, 8-[4-fluoro-2-(trifluoromethyl)phenyl]-N-[3-methoxy-4-(3-methyl-1H-1,2,4-triazol-1-yl)phenyl]-[1,2,4]triazolo[1,5-a]pyridin-2-amine] | – | – | 7.66 | < 5.00
COc1cc(Nc2nc3c(-c4cc(C(F)(F)F)ccc4F)cccn3n2)ccc1-n1cnc(C)c1 [Compound 63, 8-[2-fluoro-5-(trifluoromethyl)phenyl]-N-[3-methoxy-4-(4-methyl-1H-imidazol-1-yl)phenyl]-[1,2,4]triazolo[1,5-a]pyridin-2-amine] | – | – | 7.72 | 5.09
Cc1cc(-c2ccc(Nc3nc4n(n3)CCCC4c3cc(C(F)(F)F)ccc3C)cc2)ccn1 (stereo not drawn) [Compound 144, 5,6,7,8-tetrahydro-N-[4-(2-methyl-4-pyridinyl)phenyl]-8-[2-methyl-5-(trifluoromethyl)phenyl]-[1,2,4]triazolo[1,5-a]pyridin-2-amine] | – | – | 7.55 | < 5.00
COc1cc(Nc2nc3c(-c4ccc(F)cc4)c(C)ccn3n2)ccc1-c1ccnc(C)c1 [Compound 74, 8-(4-fluorophenyl)-N-[3-methoxy-4-(2-methyl-4-pyridinyl)phenyl]-7-methyl-[1,2,4]triazolo[1,5-a]pyridin-2-amine] | – | – | 7.82 | 5.13
COc1nc(Nc2nc3n(n2)CCCC3c2ccccc2C(F)(F)F)ccc1-n1cnc(C)c1 (stereo not drawn) [Compound 17, 5,6,7,8-tetrahydro-N-[6-methoxy-5-(4-methyl-1H-imidazol-1-yl)-2-pyridinyl]-8-[2-(trifluoromethyl)phenyl]-[1,2,4]triazolo[1,5-a]pyridin-2-amine] | – | – | 6.53 | < 5.00
COc1cc(Nc2nc3c(-c4ccc(F)cc4C)cccn3n2)ccc1-n1cnc(C)c1 [Compound 19, 8-(4-fluoro-2-methylphenyl)-N-[3-methoxy-4-(4-methyl-1H-imidazol-1-yl)phenyl]-[1,2,4]triazolo[1,5-a]pyridin-2-amine] | – | – | 8.40 | 5.43
COc1nc(Nc2nc3c(-c4ccc(F)cc4C)nccn3n2)ccc1-c1ccnc(C)c1 [Compound 187, 8-(4-fluoro-2-methylphenyl)-N-(2-methoxy-2′-methyl[3,4′-bipyridin]-6-yl)-[1,2,4]triazolo[1,5-a]pyrazin-2-amine.HCl] | 5.79 | < 5.00 | – | –
Cc1cc(-c2ccc(Nc3nc4n(n3)CCOC4c3ccccc3Cl)cc2F)ccn1 (stereo not drawn) [Compound 88, 8-(2-chlorophenyl)-N-[3-fluoro-4-(2-methyl-4-pyridinyl)phenyl]-5,6-dihydro-8H-[1,2,4]triazolo[5,1-c][1,4]oxazin-2-amine] | – | – | 7.44 | 5.03
COc1cc(N(C)c2nc3n(n2)CCCC3c2ccccc2C(F)(F)F)ccc1-n1cnc(C)c1 (stereo not drawn) [Compound 33, 5,6,7,8-tetrahydro-N-[3-methoxy-4-(4-methyl-1H-imidazol-1-yl)phenyl]-N-methyl-8-[2-(trifluoromethyl)phenyl]-[1,2,4]triazolo[1,5-a]pyridin-2-amine HCl] | – | – | 5.35 | < 5.00
COc1cc(NC(=O)c2nc3c(-c4ccccc4Cl)cccn3n2)ccc1-n1cnc(C)c1 [Compound 72, 8-(2-chlorophenyl)-N-[3-methoxy-4-(4-methyl-1H-imidazol-1-yl)phenyl]-[1,2,4]triazolo[1,5-a]pyridine-2-carboxamide] | – | – | 7.64 | 5.34
